“Also recorded” adds a separate entry of the source. Read-outs that look alike come from different tables or passages of the source.
What was measured:
[1] = molecular target: T1, N^α -acetyltransferase activity of crude yeast lysate, aaa1 mutant strain T3A-a (Saccharomyces cerevisiae, UniProt Q06504); experiment: N^α -acetylation of peptide substrates by crude yeast lysate, aaa1 mutant strain; assay type: biochemical; settings: crude lysate of aaa1 mutant strain T3A-a; mean ± SD (N=3-5); normalized to human adrenocorticotropic hormone (1-24); 50 μM peptide
T1 construct: a crude yeast homogenate from the aaa1 mutant strain; endogenous in cells; host or cells: Saccharomyces cerevisiae strain T3A-a (aaa1), crude lysate
T1 sequence (Q06504 1-195): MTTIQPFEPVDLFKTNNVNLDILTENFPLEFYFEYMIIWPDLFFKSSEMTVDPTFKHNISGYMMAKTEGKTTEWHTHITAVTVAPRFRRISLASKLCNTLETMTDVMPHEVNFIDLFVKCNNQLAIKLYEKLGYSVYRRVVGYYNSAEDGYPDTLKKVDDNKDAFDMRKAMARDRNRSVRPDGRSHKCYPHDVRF
T1 sequence (Q12387 1-796 partner): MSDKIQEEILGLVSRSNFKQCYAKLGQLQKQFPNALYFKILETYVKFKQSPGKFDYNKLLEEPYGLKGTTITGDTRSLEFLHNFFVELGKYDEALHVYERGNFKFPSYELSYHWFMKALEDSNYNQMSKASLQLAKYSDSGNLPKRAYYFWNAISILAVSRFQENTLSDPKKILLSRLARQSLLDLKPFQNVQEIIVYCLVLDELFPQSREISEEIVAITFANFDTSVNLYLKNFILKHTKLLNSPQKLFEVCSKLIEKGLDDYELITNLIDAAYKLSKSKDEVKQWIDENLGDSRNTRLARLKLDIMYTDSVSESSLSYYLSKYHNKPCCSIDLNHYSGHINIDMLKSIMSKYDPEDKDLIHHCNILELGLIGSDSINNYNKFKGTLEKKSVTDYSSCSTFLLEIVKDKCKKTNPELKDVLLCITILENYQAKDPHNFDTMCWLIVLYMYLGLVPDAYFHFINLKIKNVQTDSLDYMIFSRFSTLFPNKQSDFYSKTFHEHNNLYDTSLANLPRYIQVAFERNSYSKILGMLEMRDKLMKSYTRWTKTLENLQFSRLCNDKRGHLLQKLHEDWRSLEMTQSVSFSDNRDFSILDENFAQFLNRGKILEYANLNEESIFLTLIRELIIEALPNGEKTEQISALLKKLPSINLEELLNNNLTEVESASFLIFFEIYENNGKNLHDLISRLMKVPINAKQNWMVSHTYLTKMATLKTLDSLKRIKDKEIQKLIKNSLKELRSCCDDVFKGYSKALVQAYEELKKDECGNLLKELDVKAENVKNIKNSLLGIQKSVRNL
Protocol: (§1) N^α -acetyltransferase activity was determined as previously described [Lee et al., J. Biol. Chem. 263:14948-14955 (1988)]. Aliquots of the lysate or chromatographic fractions were added to 1.5 ml Eppendorf tubes containing a reaction mixture of 50 mM HEPES, pH 7.4, 150 mM KCl, 1 mM DTT, 25 μM [^3 H] acetyl coenzyme A (0.5 μCi) and 50 μM synthetic peptide with an adjusted final volume of 100 μl. The assay mixture was incubated at 30° C. for 30 min. The reaction was stopped by adding 17 μl of 0.5M acetic acid and chilled in an ice bath. The reaction samples were filtered through SP membrane discs (Cuno) (previously pre-swollen in 0.5M acetic acid), and then washed three times with 1 ml of 0.5M acetic acid on a Millipore 1225 sampling manifold. The partially dried membranes were placed in scintillation cocktail and counted with a Beckman LS 3801 scintillation counter. One unit of activity was defined as the amount of enzyme able to transfer 1 pmol of [^3 H] acetyl group from [^3 H] acetyl coenzyme A to synthetic peptide per min under standard enzyme assay conditions defined above.
(§2) The wild-type (containing endogenous N^α -acetyltransferase activity) and the aaa1 (lacking endogenous N^α -acetyltransferase activity) strains were T3A and T3A-a, respectively (Lee, F-J. S., et al., J. Bacteriol. 171, 5795-5802 (1989)). Human adrenocorticotropic hormone (1-24), yeast alcohol dehydrogenase (1-24), and human superoxide dismutase (1-24) have either serine or alanine as amino-terminal residues, while proteinase A inhibitor 3 has a methionine residue. The synthesis of the peptide substrates, the preparation of the crude yeast homogenate, and the assay of enzyme activity were as previously described by Lee et al. (Lee, F-J. S., et al., J. Biol. Chem. 263:14948 (1988); Kamitani, K., et al., J. Biol. Chem. 264:13188 (1989)). The numbers in parentheses refer to the residue numbers, and the letters in parentheses specify the amino acid sequence. Abbreviations: A (alanine), C (cysteine), D (aspartic acid), E (glutamic acid), F (phenylalanine), G (glycine), H (histidine), I (isoleucine), K (lysine), L (leucine), M (methionine), N (asparagine), P (proline), Q (glutamine), R (arginine), S (serine), T (threonine), V (valine), W (tryptophan). Data are reported as mean activity±SD (N=3-5) and are normalized to the activity of the homogenate towards human adrenocorticotropic hormone (1-24).

[2] = test system: N^α -acetyltransferase activity of crude yeast lysate, wild-type (AAA1) strain T3A; experiment: N^α -acetylation of peptide substrates by crude yeast lysate, wild-type strain; assay type: biochemical, Saccharomyces cerevisiae; settings: crude lysate of wild-type strain T3A; mean ± SD (N=3-5); normalized to human adrenocorticotropic hormone (1-24); 50 μM peptide
Protocol: as §1, §2

yeast N^α AT = molecular target: T2, yeast N^α AT (Saccharomyces cerevisiae, UniProt P07347+P12945); experiment: Effect of ions and reagents on yeast N^α AT (comparison in the discussion); assay type: biochemical
T2 sequence (P12945 2-854 limits assumed): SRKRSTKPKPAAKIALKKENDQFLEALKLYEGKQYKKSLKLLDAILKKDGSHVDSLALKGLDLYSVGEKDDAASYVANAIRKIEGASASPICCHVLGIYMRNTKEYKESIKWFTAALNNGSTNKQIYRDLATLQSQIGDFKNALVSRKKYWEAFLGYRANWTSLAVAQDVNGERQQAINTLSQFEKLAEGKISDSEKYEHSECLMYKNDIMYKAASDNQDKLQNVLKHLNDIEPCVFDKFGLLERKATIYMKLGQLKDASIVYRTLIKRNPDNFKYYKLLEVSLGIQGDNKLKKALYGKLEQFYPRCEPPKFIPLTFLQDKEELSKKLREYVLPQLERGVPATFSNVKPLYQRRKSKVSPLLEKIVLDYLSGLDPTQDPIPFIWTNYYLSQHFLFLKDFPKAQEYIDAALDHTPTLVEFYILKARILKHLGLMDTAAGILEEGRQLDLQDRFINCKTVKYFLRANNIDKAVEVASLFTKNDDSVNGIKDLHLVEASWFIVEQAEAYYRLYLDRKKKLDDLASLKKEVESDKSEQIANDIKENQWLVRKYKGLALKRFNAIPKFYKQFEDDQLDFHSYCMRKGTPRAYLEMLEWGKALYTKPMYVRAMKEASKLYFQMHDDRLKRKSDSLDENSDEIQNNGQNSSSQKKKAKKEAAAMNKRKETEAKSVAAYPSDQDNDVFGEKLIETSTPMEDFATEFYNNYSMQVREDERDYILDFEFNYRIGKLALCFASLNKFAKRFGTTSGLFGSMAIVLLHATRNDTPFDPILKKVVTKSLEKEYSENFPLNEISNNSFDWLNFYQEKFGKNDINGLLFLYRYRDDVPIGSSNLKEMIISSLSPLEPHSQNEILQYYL
T2 sequence (P07347 1-238): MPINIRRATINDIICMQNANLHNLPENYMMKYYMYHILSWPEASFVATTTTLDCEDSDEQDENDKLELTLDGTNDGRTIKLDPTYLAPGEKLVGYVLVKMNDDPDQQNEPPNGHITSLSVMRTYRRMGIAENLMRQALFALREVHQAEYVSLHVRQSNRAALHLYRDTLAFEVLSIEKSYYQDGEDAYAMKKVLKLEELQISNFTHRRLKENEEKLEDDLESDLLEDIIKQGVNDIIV

[3] = test system: methionine N^α -acetyltransferase from S. cerevisiae; assay type: biochemical, Saccharomyces cerevisiae; settings: for effect of ion or salt on M-N^α AT activity: concentration not given; for Enzyme Activity (%): 5 min room temperature, 50 mM HEPES pH 7.4, 1 mM DTT, substrate PAI (N=3)
Protocol: as §1, with “counter.” for “counter. One unit of activity was defined as the amount of enzyme able to transfer 1 pmol of [^3 H] acetyl group from [^3 H] acetyl coenzyme A to synthetic peptide per min under standard enzyme assay conditions defined above.”
Yeast methionine acetyltransferase was incubated in the presence of various divalent cations at a room temperature for 5 min in 50 mM HEPES, pH 7.4 containing 1 mM DTT. The enzyme activity was determined under standard assay conditions using PAI (N=3), as described above.

[4] = test system: methionine N^α -acetyltransferase from S. cerevisiae; experiment: Effect of protein modification reagents on enzyme activity; assay type: biochemical, Saccharomyces cerevisiae; settings: for Enzyme Activity (%): 30° C. 15 min, then dialyzed, substrate PAI (N=3)
Protocol: as §1
In order to determine the possible catalytic role for different types of amino acid residues in the enzyme, various chemical modifications were carried out (Table 10). Yeast methionine acetyltransferase was incubated with each reagent at 30° C. for 15 min, dialyzed against 50 mM HEPES, pH 7.4, 150 mM, 1 mM DTT at 4° C. for 3 to 4 hr. The enzyme activity was determined under standard assay conditions using PAI (N=3), assayed as described above.

[5] = test system: yeast M-N^α -acetyltransferase; experiment: Effect of KCl or NaCl on enzyme activity; assay type: biochemical, Saccharomyces cerevisiae; settings: for reduction in enzyme activity: enzyme assay performed at 0.8M, 800000 µM; for effect on enzyme activity: up to 0.5M in the assay
Protocol: as §1

ATKAVCVLKGDGPVQGSINFEQKE (ATKAVCVLKGDGPVQGSINFEQKE) [Superoxide dismutase (1-24) (Human)]
Activity (%) aaa1 [1]: 0% | Activity (%) AAA1 [2]: 80 ± 6%

O=S(=O)([O-])[O-].[Cu+2] [CuSO4]
effect of ion on N^α AT activity (yeast N^α AT): inhibited markedly | effect of ion or salt on M-N^α AT activity ([3]; listed as Cu^2+): pronounced and concentration-dependent inhibition; also recorded: inhibited markedly | Enzyme Activity (%) ([3]; salt 0.1 mM): 65% | Enzyme Activity (%) ([3]; salt 1 mM): 0%

O=S(=O)([O-])[O-].[Zn+2] [ZnSO4]
effect of ion on N^α AT activity (yeast N^α AT): inhibited markedly | effect of ion or salt on M-N^α AT activity ([3]; listed as Zn^2+): pronounced and concentration-dependent inhibition; also recorded: inhibited markedly | Enzyme Activity (%) ([3]; salt 0.01 mM): 95% | Enzyme Activity (%) ([3]; salt 0.1 mM): 52% | Enzyme Activity (%) ([3]; salt 1 mM): 0%

Cl [chloride ion]
effect of ion on N^α AT activity (yeast N^α AT): neither M-N^α AT nor N^α AT were activated | effect of ion or salt on M-N^α AT activity [3]: neither M-N^α AT nor N^α AT were activated

NC(=O)CI [IAM, iodoacetamide]
effect of reagent on M-N^α AT activity ([4]; 1 mM): without effect | effect of reagent on M-N^α AT activity ([4]; 10 mM): partial inactivation | effect of reagent on M-N^α AT activity ([4]; concentration not given): inability | Enzyme Activity (%) ([4]; reagent 1.0 mM): 100% | Enzyme Activity (%) ([4]; reagent 10.0 mM): 86% | effect of reagent on N^α AT activity (yeast N^α AT): inability

CCN1C(=O)C=CC1=O [NEM, N-ethylmaleimide]
effect of reagent on M-N^α AT activity ([4]; 0.5 mM): partial inactivation | effect of reagent on M-N^α AT activity ([4]; concentration not given): inability | Enzyme Activity (%) ([4]; reagent 0.5 mM): 77% | Enzyme Activity (%) ([4]; reagent 5.0 mM): 20% | effect of reagent on N^α AT activity (yeast N^α AT): inability

[Cl-].[Na+] [NaCl]
reduction in enzyme activity [5]: 50% | effect on enzyme activity [5]: did not affect the enzyme activity

[Cl-].[K+] [KCl]
reduction in enzyme activity [5]: 50% | effect on enzyme activity [5]: did not affect the enzyme activity

Reference: patent publication US5223421A, “Identification of methionine Nα-acetyltransferase” (The General Hospital Corporation, priority 1990, dated 1993)
